Data reported in patent US20100286186A1, “NOVEL DICARBOXYLIC ACID LINKED AMINO ACID AND PEPTIDE PRODRUGS OF OPIOIDS AND USES THEREOF” (Shire LLC, priority 2009, published 2010).
Several values for one entry are separate records, joined by “and”; a condition that tells them apart may be missing. Equal values may be shown once. Marks after values point to notes of the source that are not given here.

Legend:
[1] = In vitro stability of dicarboxylate amino acid ester prodrugs in simulated gastric and intestinal juice, distilled water and pH 10 buffer (HPLC); settings: for Simulated gastric fluid (pH 1.1): % remaining after 2 h/37° C.: pH 1.1, 2 h; for Distilled water (pH 5.9): % remaining after 2 h/20° C.: pH 5.9, 2 h; for Simulated intestinal fluid (pH 6.8): % remaining after 2 h/37° C.: pH 6.8, 2 h; for pH 10.0 buffer: % remaining after 2 h/20° C.: pH 10.0, 2 h
[2] = Bioavailability of oxycodone, codeine and dihydrocodeine from their succinyl valine ester prodrugs in the dog (oral gavage, two-way crossover); settings: dogs, oral gavage; for T>50%Cmax of dihydrocodeine: 1 mg free base equivalents dihydrocodeine/kg; for T>50%Cmax of codeine: 1 mg free base equivalents codeine/kg
Description: The characteristics of the test animals are set out in Table 10, below.
(§1) Blood samples were taken at various times after administration and submitted to analysis for the parent drug and pro-drug using a validated LC-MS-MS assay. Pharmacokinetic parameters derived from the plasma analytical data were determined using Win Nonlin.

gut motility in the rat = assay: Charcoal propulsion test of GI motility in the rat; format: in vivo; settings: oral
Description: Test treatments were administered to groups of up to 10 rats fasted overnight prior to the test.
Test treatments were administered orally 60 minutes prior to a 2.0 mL oral dose of a 10% suspension of charcoal in 5% gum arabic. Thirty minutes after dosing with charcoal, the rats were sacrificed and the entire gastro-intestinal tract quickly and carefully removed. The distance the charcoal meal had traveled from the pyloric sphincter toward the caecum was measured and expressed as a percentage of both the total gut length and the length of the small intestine.

[3] = Systemic availability of hydrocodone in dogs after oral administration of hydrocodone or hydrocodone succinyl valine enol ester; settings: 1 mg hydrocodone free base equivalents/kg; for half-life: t½ of hydrocodone
Description: Test substances i.e. hydrocodone or hydrocodone succinyl valine enol ester were administered by oral gavage to a group of five male dogs in a two-way crossover design The characteristics of the test animals are set out in Table 26, below.
as §1

[4] = Plasma pharmacokinetics of meptazinol dicarboxylate linked prodrugs after oral gavage to dogs; format: in vivo, dog; settings: dog, oral gavage of prodrug, 1 mg meptazinol base equivalents/kg; for Dog Cmax (plasma meptazinol): meptazinol level; for Dog Cmax (plasma prodrug levels, in brackets): prodrug level, BLQ = below 0.5 ng/mL
[5] = Stability of meptazinol dicarboxylate bridged amino acid prodrugs in simulated gastric and intestinal juice and pH 7.4 buffer; format: physicochemical; settings: for 2 h stability in pH7.4 buffer (37° C.), Conversion to meptazinol: pH 7.4 buffer
Source text: Initially the inherent chemical and biological stability of various dicarboxylate bridged amino acid prodrugs of meptazinol, was investigated under the conditions prevailing in the GI tract. Premature hydrolysis of the prodrug in the gut lumen prior to absorption would reduce the opportunity for transient protection of the drug during its passage though the liver and the desired reduction in first pass metabolism.
The remaining concentrations of the prodrug (and also drug released) were then assayed by HPLC. Additionally their chemical stability was evaluated in pH 7.4 buffer for 2 h 37° C.

[6] = Plasma pharmacokinetics of meptazinol dicarboxylate linked prodrugs after oral gavage to cynomolgus monkeys; format: in vivo, cynomolgus monkey; settings: cynomolgus monkey, oral gavage of prodrug, 1 mg meptazinol base equivalents/kg; for Monkey Cmax (plasma meptazinol): meptazinol level; for Monkey Cmax (plasma prodrug levels, in brackets): prodrug level, BLQ = below 0.5 ng/mL
[7] = male dogs, oral, individual dogs 1M-5M

With COc1ccc2c3c1O[C@H]1[C@@H](OC(=O)CCC(=O)NC(C(=O)O)C(C)C)CCC4[C@@H](C2)N(C)CC[C@@]341 (stereo in doubt) [dihydrocodeine-[succinyl-(S)-valine]ester] the “Simulated gastric fluid (pH 1.1): % remaining after 2 h/37° C.” value [1] was 100%, the “Distilled water (pH 5.9): % remaining after 2 h/20° C.” value [1] was 100% and the “Simulated intestinal fluid (pH 6.8): % remaining after 2 h/37° C.” value [1] was 100%. For the same molecule, the “pH 10.0 buffer: % remaining after 2 h/20° C.” value [1] was 98%, the “T>50%Cmax of dihydrocodeine” value ([2]; individual dogs 1-5) was 3 h (2×) and 2 h and 1 h (2×) and the “T>50%Cmax of dihydrocodeine” value ([2]; median (n=5)) was 2^a h. The “% change from vehicle-treated animals, small intestine” value (“% change … small intestine” below) (gut motility in the rat; 10 mg/kg) was −17.4%, the “% change from vehicle-treated animals, total gut length” value (from here on “% change … total gut length”) (gut motility in the rat; 10 mg/kg) was −16.6% and the “% change … small intestine” value (gut motility in the rat; 30 mg/kg) was −8.5%. The “% change … total gut length” value (gut motility in the rat; 30 mg/kg) was −8.5%, the “% change … small intestine” value (gut motility in the rat; 100 mg/kg) was −13.3% and the “% change … total gut length” value (gut motility in the rat; 100 mg/kg) was −12.9%. The “% change … small intestine” value (gut motility in the rat; 300 mg/kg) was −35.7% and the “% change … total gut length” value (gut motility in the rat; 300 mg/kg) was −35.3%.

With COc1ccc2c3c1O[C@H]1[C@@H](O)C=C[C@H]4[C@@H](C2)N(C)CC[C@@]341.Cl [Codeine HCl, reference compound] the “T>50%Cmax of codeine” value ([2]; individual dogs 1-5, HCl) was 1.5 h (3×) and 0.5 h (2×) and the “T>50%Cmax of codeine” value ([2]; median (n=5)) was 1.5^a h.

With COc1ccc2c3c1O[C@H]1[C@@H](OC(=O)CCC(=O)N[C@H](C(=O)O)C(C)C)C=CC4[C@@H](C2)N(C)CC[C@@]341 (stereo partly drawn) [Codeine-[succinyl-(S)-valine] ester, codeine-[succinyl-(S)-valine]ester] the “Simulated gastric fluid (pH 1.1): % remaining after 2 h/37° C.” value [1] was 99%, the “Distilled water (pH 5.9): % remaining after 2 h/20° C.” value [1] was 100% and the “Simulated intestinal fluid (pH 6.8): % remaining after 2 h/37° C.” value [1] was 98%. For the same molecule, the “pH 10.0 buffer: % remaining after 2 h/20° C.” value [1] was 92%, the “T>50%Cmax of codeine” value ([2]; individual dogs 1-5) was 2 h (4×) and 1 h and the “T>50%Cmax of codeine” value ([2]; median (n=5)) was 2^a h. For the same molecule, the “% change … small intestine” value (gut motility in the rat; 10 mg/kg) was −9.7%, the “% change … total gut length” value (gut motility in the rat; 10 mg/kg) was −9.3% and the “% change … small intestine” value (gut motility in the rat; 30 mg/kg) was −15.7%. The “% change … total gut length” value (gut motility in the rat; 30 mg/kg) was −15.1%, the “% change … small intestine” value (gut motility in the rat; 100 mg/kg) was −16.4% and the “% change … total gut length” value (gut motility in the rat; 100 mg/kg) was −15.6%.

With COc1ccc2c3c1O[C@H]1C(=O)CC[C@H]4[C@@H](C2)N(C)CC[C@]314 [Hydrocodone, hydrocodone] the AUC of hydrocodone [3, 7] was 155 ng·h/mL and 111 ng·h/mL and 91.7 ng·h/mL and 71.0 ng·h/mL and 95.3 ng·h/mL, the AUCt of hydrocodone [3, 7] was 154 ng·h/mL and 107 ng·h/mL and 89.2 ng·h/mL and 69.7 ng·h/mL and 94.1 ng·h/mL and the Cmax of hydrocodone [3, 7] was 119 ng/mL and 76.8 ng/mL and 57.8 ng/mL and 53.3 ng/mL and 71.1 ng/mL. The “T>50%Cmax of hydrocodone” value [3, 7] was 0.75 h (3×) and 1.25 h (2×), the t½ of hydrocodone [3, 7] was 1.58 h and 1.66 h (2×) and 1.46 h and the “T>50%Cmax of hydrocodone” value ([3]; male dogs, oral, mean) was 0.95 h. For the same molecule, the Tmax of hydrocodone ([3]; male dogs, oral, median) was 0.5* h, the Tmax ([3]; male, Beagle, dog, plasma, po) was 0.5 h and the AUC ([3]; male, Beagle, dog, plasma, po, AUC of hydrocodone, male dogs, mean) was 105 ng·h/mL. For the same molecule, the AUC(0-t) ([3]; male, Beagle, dog, plasma, po, AUCt of hydrocodone, male dogs, mean) was 103 ng·h/mL, the Cmax ([3]; male, Beagle, dog, plasma, po, Cmax of hydrocodone, male dogs, mean (n=5)) was 75.6 ng/mL and the half-life ([3]; male, Beagle, dog, plasma, po, male dogs, individual dogs 1M-5M) was 1.31 h. The half-life ([3]; male, Beagle, dog, plasma, po, male dogs, mean) was 1.54 h.

In the case of CCC1(c2cccc(OC(=O)CCCC(=O)Nc3ccc(C(=O)O)cc3)c2)CCCCN(C)C1 (stereo not drawn) [Meptazinol [glutaryl-PABA] ester], the “Dog Cmax (plasma meptazinol)” value [4] is reported as 3.4 ng/mL, the “Dog Cmax (plasma prodrug levels, in brackets)” value [4] is reported as 6.7 ng/mL and the “2 h stability in pH7.4 buffer (37° C.), Conversion to meptazinol” value [5] is reported as 80%. For the same molecule, the “1 h stability in simulated gastric fluid (37° C.), Conversion to meptazinol” value ([5]; simulated gastric fluid, 1 h) was 5%, the “2 h stability in simulated intestinal fluid (37° C.), Conversion to meptazinol” value [5] was 6% and the “Monkey Cmax (plasma meptazinol)” value [6] was 1.5 ng/mL. The “Monkey Cmax (plasma prodrug levels, in brackets)” value [6] was 1.7 ng/mL.

For CCC1(c2cccc(OC(=O)C(C)(C)CC(=O)N[C@H](C(=O)O)C(C)C)c2)CCCCN(C)C1 (stereo partly drawn) [Meptazinol-[2,2-dimethylsuccinyl-(S)-valine] ester], the “Dog Cmax (plasma meptazinol)” value [4] was 0.9 ng/mL, the “Dog Cmax (plasma prodrug levels, in brackets)” value [4] was 25 ng/mL and the “2 h stability in pH7.4 buffer (37° C.), Conversion to meptazinol” value [5] was 2%. The “2 h stability in simulated intestinal fluid (37° C.), Conversion to meptazinol” value [5] was 3%, the “Monkey Cmax (plasma meptazinol)” value [6] was 0.4 ng/mL and the “Monkey Cmax (plasma prodrug levels, in brackets)” value [6] was 100 ng/mL.
